Data reported in patent US20210388260A1, “USE OF A SUBSTITUTED OR UNSUBSTITUTED POLYCYCLIC AROMATIC HYDROCARBON COMPOUND FOR HIGH-RESOLUTION MICROSCOPY” (Max-Planck-Gesellschaft zur Förderung der Wissenschaften e.V, priority 2018, published 2021).
In brackets after ≈: the same amount, converted by molar mass.

Assays:
[1] = assay type: physicochemical
Protocol: (§1) 3,4,5-Tris(hexaethylene glycol) substituted 6,14-dimesityldibenzo[hi,st]ovalene was prepared analogous to example 4 and evaluated concerning its toxicity.

[2] = Toxicity evaluation (Example 9)
Protocol: as §1

[3] = STED imaging, stability embedded in polystyrene and in air (Example 12); assay type: physicochemical; conditions: high STED beam power, 3D STED imaging of more than one hour
Protocol: Different measurements were performed with 6,14-dimesityldibenzo[hi,st]ovalene being embedded in a polystyrene matrix and with 6,14-dimesityldibenzo[hi,st]ovalene in air. A Leica SP8 microscopy was used for the microscopy with an excitation laser wavelength of 561 nm and depletion (STED) laser wavelength of 775 nm.
The prepared glass coverslips were taped to a slide and kept in dark at room temperature until use.
A 15-months old sample of 6,14-dimesityldibenzo[hi,st]ovalene embedded in polystyrene as well as a freshly prepared sample of 6,14-dimesityldibenzo[hi,st]ovalene embedded in polystyrene were analyzed by STED.
6,14-dimesityldibenzo[hi,st]ovalene powder was dispersed in toluene at room temperature to a concentration of 10^−5 mol/L and was then further diluted to the needed concentration of e.g. 10^−7 mol/L. A gridded glass coverslip (#1.5) purchased from Ibidi GmbH in Martinsried, Germany which have microscopic/nano-structures was cleaned by oxygen-plasma cleaner (250 W, 5 minutes). 8 μl 10^−7 mol/L solution were put on top of the micro/nano-structure sample. After a few minutes, when all of the toluene was volatilized completely, the prepared sample was put on the microscope for 3D STED imaging.
The STED was performed with the following microscopy settings of the Leica SP8 microscope: […]

[4] = Absorption and emission spectra, molar extinction coefficient, fluorescence quantum yield; assay type: physicochemical; conditions: for width of absorption and emission spectra: spectra of FIGS. 3a-d, 4a-d; for fluorescence quantum yield / maximum absorption wavelength / molar extinction coefficient ε: in toluene (10^−5 mol/L); for molar extinction coefficient ε: at maximum absorption wavelength
From the text: The maximum absorption wavelength in toluene (10^−5 mol/L) was 611 nm (molar extinction coefficient ε=2.03×10^5 M^−1 cm^−1) with a high fluorescence quantum yield of 0.85.
The maximum absorption wavelength in toluene (10^−5 mol/L) was 609 nm (molar extinction coefficient c=2.83×10^5 M^−1 cm^−1) with a high fluorescence quantum yield of 0.85.
The maximum absorption wavelength in toluene (10^−5 mol/L) was 647 nm (molar extinction coefficient ε=61511 M^−1 cm^−1) with a fluorescence quantum yield of 0.67.
The maximum absorption wavelength in toluene (10^−5 mol/L) was 609 nm (molar extinction coefficient ε=3.85×10^5 M^−1 cm^−1) with a high fluorescence quantum yield of 0.89.

fixed cells = experiment: Blinking-mode imaging of fixed cell samples in PBS without special imaging buffer; assay type: cell-based
From the text: After the aforementioned live cell imaging, the samples were fixed and imaged in phosphate-buffered saline (PBS) without special imaging buffer.

living cells [5] = experiment: Cytotoxicity test in living cells (Example 13, FIG. 8); assay type: cell-based; conditions: concentration of 1 μM
Protocol: (§2) More specifically, the cytotoxicity of DBOV-Mes-OTEG was tested in living cells. […] Moreover, the uptake of DBOV-Mes-OTEG into living cells was investigated by imaging 21 hours with low laser intensity at the spinning disk confocal microscopy (Visitron).

living cells [6] = experiment: Uptake into living cells, spinning disk confocal microscopy; assay type: cell-based
Protocol: as §2

Solubility in water = assay type: physicochemical; conditions: room temperature
Protocol: In accordance with the present invention, the solubility and particularly the solubility of the compound having the general formula (1) or the general formula (2) in water at 23° C. is measured as follows: 1 mg sample is weighed into an Erlenmeyer flask and is then mixed homogeneously with 4 ml of water with a spatula at 23° C. The remaining substance on the spatula is stripped off with a magnetic stirrer bar, which is then added to the Erlenmeyer flask. While stirring with a magnetic stirrer, water is added dropwise with a burette until the solution in the Erlenmeyer flask becomes clear at 23° C. After that, the solubility of compound in water is calculated by calculating the ratio of weighed compound divided by the volume of added water and then by recalculating this ratio to 1 l of water.

| Compound | width of absorption and emission spectra [4] | fluorescence quantum yield [4] | maximum absorption wavelength [4] | molar extinction coefficient ε [4] | also measured |
| --- | --- | --- | --- | --- | --- |
| 3,4,5-Tris(hexaethylene glycol) substituted 6,14-dimesityldibenzo[hi,st]ovalene | – | – | – | – | solubility in DMSO [1]: good solubility; concentration up to which the compound is non-toxic [2]: ≤ 5 µM |
| Cc1cc(C)c(-c2c3cccc4c5ccc6ccc7c(-c8c(C)cc(C)cc8C)c8cccc9c%10ccc%11ccc2c2c%11c%10c%10c(c89)c7c6c5c%10c2c34)c(C)c1 [DBOV-Mes, 6,14-dimesityldibenzo[hi,st]ovalene] | – | – | – | – | stability and brightness under STED beam [3]: very stable and still very bright |
| CCCCCCn1c(=O)c2c3ccc4c(-c5c(C)cc(C)cc5C)c5ccc6cc7c8c(=O)n(CCCCCC)c(=O)c8c8ccc9c(-c%10c(C)cc(C)cc%10C)c%10ccc%11cc(c2c1=O)c1c3c4c2c5c6c3c7c8c9c4c%10c%11c1c2c43 [Example 8, N-hexyl fumaric acid imide group substituted 6,14-dimesityldibenzo[hi,st]ovalene] | narrow absorption spectrum as well as a narrow emission spectrum | – | – | – | – |
| CC(C)[Si](C#Cc1c2cccc3c4ccc5ccc6c(C#C[Si](C(C)C)(C(C)C)C(C)C)c7cccc8c9ccc%10ccc1c1c%10c9c9c(c78)c6c5c4c9c1c23)(C(C)C)C(C)C [Example 5, 6,14-di(triisopropylsilylethynyl) dibenzo[hi,st]ovalene] | narrow absorption spectrum as well as a narrow emission spectrum | 0.67 | 647 nm | 61511 M⁻¹ cm⁻¹ | – |
| CCCCCCCCCCCCc1c2cccc3c4ccc5ccc6c(CCCCCCCCCCCC)c7cccc8c9ccc%10ccc1c1c%10c9c9c(c78)c6c5c4c9c1c23 [Example 1, 6,14-didodecyldibenzo[hi,st]ovalene] | – | 0.85 | 611 nm | 203000 M⁻¹ cm⁻¹ | melting point: > 400 °C |
| Cc1cccc(C)c1-c1c2cccc3c4ccc5ccc6c(-c7c(C)cccc7C)c7cccc8c9ccc%10ccc1c1c%10c9c9c(c78)c6c5c4c9c1c23 [Example 2, 6,14-bis(dimethylphenyl)dibenzo[hi,st]ovalene] | narrow absorption spectrum as well as a narrow emission spectrum | 0.85 | 609 nm | 283000 M⁻¹ cm⁻¹ | – |
| CCCCCCCCCCCCOc1cc(-c2c3cccc4c5ccc6ccc7c(-c8cc(OCCCCCCCCCCCC)c(OCCCCCCCCCCCC)c(OCCCCCCCCCCCC)c8)c8cccc9c%10ccc%11ccc2c2c%11c%10c%10c(c89)c7c6c5c%10c2c34)cc(OCCCCCCCCCCCC)c1OCCCCCCCCCCCC [Example 6, 6,14-bis[3,4,5-tris(dodecoxyl)-phenyl]dibenzo[hi,st]ovalene] | – | 0.89 | 609 nm | 385000 M⁻¹ cm⁻¹ | – |
| COCCOCCOCCOCCOc1cc(-c2ccc3cc4cc5c(-c6c(C)cc(C)cc6C)cc6cc7c(-c8cc(OCCOCCOCCOCCOC)c(OCCOCCOCCOCCOC)c(OCCOCCOCCOCCOC)c8)ccc8cc9cc%10c(-c%11c(C)cc(C)cc%11C)cc%11cc2c3c2c%11c%10c3c9c(c87)c6c5c3c42)cc(OCCOCCOCCOCCOC)c1OCCOCCOCCOCCOC [Example 4, 3,11-bis(3,4,5-tris(2,5,8,11-tetraoxatridecan-13-yloxy)phenyl)-6,14-dimesityldibenzo[hi,st]ovalene] | – | – | – | – | decrease of blinking signals (fixed cells; continuous exposure, high laser intensity 10 kW/cm^2 for 90 min): no significant decrease; blinking signals at low laser intensity (fixed cells; low laser intensity of 240 W/cm^2): blinking signals could also be imaged; toxicity to cells (living cells [5]): does not show any significant toxicity; location of compound in living cells (living cells [6]; after 21 hours incubation): in the nucleus and nuclear membrane; location of compound in living cells (living cells [6]; at the beginning of the incubation): taken into the cytoplasm; solubility in water (Solubility in water): 100 µg/mL (≈ 47.7 µM) |
| 6,14-diphenyldibenzo[hi,st]ovalene [Example 7] | narrow absorption spectrum as well as a narrow emission spectrum | – | – | – | – |
